From PubChem BioAssay AID330 (DTP/NCI, 2004)
Inconclusive results and toxic doses are left out.

Tested on: P388 leukemia ip, CD2F1 mice, survival T/C
Test: NCI In Vivo Anticancer Drug Screen. Data for tumor model P388 Leukemia (intraperitoneal) in CD2F1 (CDF1) mice
Details: endpoint: median survival time, higher = longer survival
Summary of the method: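 Mice carrying the transplanted tumor received test compound or vehicle. Survival was recorded in each group, and the value is the treated-group measurement divided by that of the vehicle-treated control group.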

[1] = dose: 25.0 mg/kg/injection, schedule: Q01DX009 (ip), vehicle: saline
[2] = dose: 50.0 mg/kg/injection, schedule: Q01DX009 (ip), vehicle: Klucel (hydroxypropylcellulose) (HPC)
[3] = dose: 50.0 mg/kg/injection, schedule: Q01DX009 (ip), vehicle: saline
[4] = dose: 50.0 mg/kg/injection, schedule: Q04DX003 (ip), vehicle: saline
[5] = dose: 100.0 mg/kg/injection, schedule: Q01DX009 (ip), vehicle: Klucel (hydroxypropylcellulose) (HPC)
[6] = dose: 100.0 mg/kg/injection, schedule: Q01DX009 (ip), vehicle: saline
[7] = dose: 100.0 mg/kg/injection, schedule: Q04DX003 (ip), vehicle: saline

With `CCS(=O)(=O)OCCCNCCCOS(=O)(=O)CC` the T/C (dose: 12.5 mg/kg/injection, schedule: Q01DX001 (ip), vehicle: saline) was 124 % of control, the T/C (dose: 12.5 mg/kg/injection, schedule: Q04DX003 (ip), vehicle: saline) was 154 % of control and the T/C (dose: 25.0 mg/kg/injection, schedule: Q01DX001 (ip), vehicle: saline) was 86 % of control. The T/C [1] was 215 % of control, the T/C (dose: 25.0 mg/kg/injection, schedule: Q04DX003 (ip), vehicle: saline) was 160 % of control and the T/C [2] was 201 % of control. The T/C [3] was 268 % of control, the T/C [4] was 193 % of control and the T/C (dose: 100.0 mg/kg/injection, schedule: Q01DX001 (ip), vehicle: saline) was 156 % of control. For the same compound, the T/C [5] was 199 % of control, the T/C [6] was 277 % of control and the T/C [7] was 209 % of control. The T/C (dose: 200.0 mg/kg/injection, schedule: Q01DX001 (ip), vehicle: saline) was 173 % of control, the T/C (dose: 200.0 mg/kg/injection, schedule: Q01DX009 (ip), vehicle: Klucel (hydroxypropylcellulose) (HPC)) was 94 % of control and the T/C (dose: 200.0 mg/kg/injection, schedule: Q01DX009 (ip), vehicle: saline) was 175 % of control. The T/C (dose: 200.0 mg/kg/injection, schedule: Q04DX003 (ip), vehicle: saline) was 272 % of control and the T/C (dose: 400.0 mg/kg/injection, schedule: Q01DX001 (ip), vehicle: saline) was 181 % of control.

With `CNc1nc(N)nc(N)c1N1CCN(c2ccc(C(=O)NC(CCCC(=O)O)C(=O)O)cc2)CC1` (configuration not stated) the T/C (dose: 60.0 mg/kg/injection, schedule: Q01DX005 (ip), vehicle: saline with Tween-80) was 99 % of control, the T/C (dose: 120.0 mg/kg/injection, schedule: Q01DX005 (ip), vehicle: saline with Tween-80) was 100 % of control and the T/C (dose: 240.0 mg/kg/injection, schedule: Q01DX005 (ip), vehicle: saline with Tween-80) was 95 % of control.

In the case of `Cc1cc2ncn(C(=O)Nc3ccccc3)c2cc1C`, the T/C (dose: 100.0 mg/kg/injection, schedule: Q04DX003 (ip), vehicle: saline with Tween-80) is reported as 100 % of control, the T/C (dose: 200.0 mg/kg/injection, schedule: Q04DX003 (ip), vehicle: saline with Tween-80) is reported as 90 % of control and the T/C (dose: 400.0 mg/kg/injection, schedule: Q04DX003 (ip), vehicle: saline with Tween-80) is reported as 90 % of control.

`COC1(OC)C=NNc2ncnn21` was tested, and the T/C (dose: 60.0 mg/kg/injection, schedule: Q01DX005 (ip), vehicle: saline) was 103 % of control, the T/C (dose: 120.0 mg/kg/injection, schedule: Q01DX005 (ip), vehicle: saline) was 104 % of control and the T/C (dose: 240.0 mg/kg/injection, schedule: Q01DX005 (ip), vehicle: saline) was 105 % of control.

With `O=C1CC(c2ccccc2)NN1` (configuration not stated) the T/C [3] was 103 % of control and the T/C [6] was 97 % of control.

For `CCOC(=O)N1CCN(C(=S)NNC(C)c2cccc[n+]2[O-])CC1` (configuration not stated), the T/C (dose: 50.0 mg/kg/injection, schedule: Q01DX005 (ip), vehicle: saline with Tween-80) was 99 % of control and the T/C (dose: 100.0 mg/kg/injection, schedule: Q01DX005 (ip), vehicle: saline with Tween-80) was 100 % of control.

With `Nc1nc(Cl)nc2c1ncn2C1OC(CO)C(O)C1F` (configuration not stated) the T/C (dose: 12.5 mg/kg/injection, schedule: Q01DX005 (ip), vehicle: saline) was 122 % of control and the T/C (dose: 200.0 mg/kg/injection, schedule: Q01DX005 (ip), vehicle: saline) was 159 % of control.

For `NC(=S)N=Nc1c(O)n(CCCO)c2ccccc12`, the T/C (dose: 60.0 mg/kg/injection, schedule: Q01DX005 (ip), vehicle: Klucel (hydroxypropylcellulose) (HPC)) was 93 % of control and the T/C (dose: 120.0 mg/kg/injection, schedule: Q01DX005 (ip), vehicle: Klucel (hydroxypropylcellulose) (HPC)) was 100 % of control.

`CC1COS(=O)(=O)C1` (configuration not stated) was tested, and the T/C [1] was 102 % of control and the T/C [3] was 101 % of control.

With `Cc1ccc2c3c1CCCN3CCC2` the T/C [4] was 112 % of control and the T/C [7] was 112 % of control.

For `Brc1cnc2nc(Cc3cccc4ccccc34)[nH]c2c1`, the T/C (dose: 100.0 mg/kg/injection, schedule: Q01DX001 (ip), vehicle: saline with Tween-80) was 109 % of control, the T/C (dose: 200.0 mg/kg/injection, schedule: Q01DX001 (ip), vehicle: saline with Tween-80) was 103 % of control and the T/C (dose: 400.0 mg/kg/injection, schedule: Q01DX001 (ip), vehicle: saline with Tween-80) was 97 % of control.

In the case of `CC(=O)OCC12CCC(C)=CC1OC1C(=O)CC2(C)C12CO2` (configuration not stated), the T/C (dose: 0.5 mg/kg/injection, schedule: Q01DX009 (ip), vehicle: saline) is reported as 100 % of control, the T/C (dose: 1.0 mg/kg/injection, schedule: Q01DX009 (ip), vehicle: saline) is reported as 101 % of control and the T/C (dose: 2.0 mg/kg/injection, schedule: Q01DX009 (ip), vehicle: saline) is reported as 94 % of control. For the same compound, the T/C (dose: 4.0 mg/kg/injection, schedule: Q01DX009 (ip), vehicle: saline) was 110 % of control.

In the case of `CCOC(=O)c1c[nH]c2c(Cl)c(Cl)ccc2c1=O`, the T/C [2] is reported as 102 % of control and the T/C [5] is reported as 95 % of control.
